Reference: patent US4810630A, “Use of polyoxyethylene ethers to improve the performance of immunoassays employing peroxidase conjugates” (priority 1987, dated 1989)

System: N. gonorrhea
Assay: Microtiter plate enzyme immunoassay: optimization of coating antibody concentration with detergent in assay buffer
Set-up: species or system Neisseria gonorrhea
Experimental: Samples were treated 1.0N NaOH and neutralized with assay buffer as described in Example 1, above. For this assay, 0.100 mL aliquots of the treated, neutralized sample were transferred to the wells of a 96-well microtiter plate which had been previously incubated with an optimized concentration of anti-N. gonorrhea antibody diluted in phosphate buffered saline for 90-120 minutes, drained, then blocked with a solution containing 1.0% bovine serum albumin and 20% sucrose in phosphate buffered saline for 2 hours and dried in vacuo. The aliquots were permitted to incubate in the microtiter plate wells for 90 minutes at room temperature,then drained and washed with phosphate buffered saline containing 0.05% Tween® 20. Horseradish peroxidase conjugated anti-N. gonorrhea, 100 μL of an optimized concentration, was then added to each well and the plate again incubated for 1 hour at room temperature. The plate was then drained and washed as above. A 100 μL portion of the substrate/chromogen solution described in Example 1, above, was then added to each well and incubated for 10 minutes at room temperature. The absorbance of each well was then determined at 630 nm, and corrected for the absorbance at 490 nm.
Antibody specific for Neisseria gonorrhea was used to coat the wells of microtiter plates at varying concentrations in phosphate buffered saline, as described above. A comparison of the optimal antibody concentration in assays using Tween® 20 or Triton® X-100 was made by testing a single concentration of N. gonorrhea in wells previously coated, blocked, and dried as described above. The optimum concentration of antibody is identified as that which yields the maximum signal in the assay with a minimal background response. Table 4 lists the results of such experiments using Tween® 20 and Triton® X-100 as detergents in the assay buffer.

| Substance | % Maximum Signal (coating antibody 0.20 μg/well) | % Maximum Signal (coating antibody 0.30 μg/well) | % Maximum Signal (coating antibody 0.35 μg/well) | % Maximum Signal (coating antibody 0.40 μg/well) | % Maximum Signal (coating antibody 0.45 μg/well) | % Maximum Signal (coating antibody 0.5 μg/well) | % Maximum Signal (coating antibody 0.60 μg/well) | % Maximum Signal (coating antibody 0.05 μg/well) | % Maximum Signal (coating antibody 0.1 μg/well) | % Maximum Signal (coating antibody 0.8 μg/well) | % Maximum Signal (coating antibody 1.0 μg/well) | % Maximum Signal (coating antibody 1.5 μg/well) | % Maximum Signal (coating antibody 2.0 μg/well) |
| --- | --- | --- | --- | --- | --- | --- | --- | --- | --- | --- | --- | --- | --- |
| polyoxyethylene-octylphenoxy [Triton ® X-100] | 100% | 98% | 70% | 69% | 66% | 58% | 57% |  |  |  |  |  |  |
| polyoxyethylene-sorbitan monolaurate [Tween ® 20] |  |  |  |  |  | 100% |  | 16% | 35% | 98% | 90% | 77% | 66% |
